Data from patent US20110224231A1, “Novel Lactams as Beta Secretase Inhibitors” (Pfizer Inc., priority 2008, published 2011).

Biological target: T1, soluble human BACE (Homo sapiens, UniProt P56817)
T1 construct: cells secreting human recombinant soluble BACE; made in house; conditioned medium
Test: BACE activity Cell Free Assay (ELISA of cleaved synthetic APP substrate)
Assay type: biochemical
Description: A synthetic APP substrate that can be cleaved by beta˜secretase and having N-terminal biotin is used to assay beta-secretase activity in the presence or absence of the inhibitory compounds. […] The substrate and test compounds are added to 384 well polypropylene plates. The reaction is initiated by the addition of soluble BACE enzyme to a final volume of 12.5 μL per well. The final assay conditions are: 0.001˜300 μM compound inhibitor, 0.05M sodium acetate (pH 4.5), 3 μM substrate, soluble human BACE, and 2% DMSO. Concentrated conditioned media from cells secreting human recombinant soluble BACE was titrated to provide a source of BACE enzyme. The cell media can be used as either a crude BACE prep or BACE can be purified using any number of techniques, including immobilized BACE inhibitor purification columns. The assay mixture is incubated for 1 hour at 37° C., and the reaction is quenched by the addition of an equal volume of 0.1M Tris, pH 8. Half of the quenched mix is incubated on clear streptavidin coated 384 well polystyrene plates for 1 hour. An ELISA is then performed using an in˜house antibody that specifically recognizes the new C˜terminus created after cleavage by BACE. […] (These polyclonal antibodies were raised in rabbits by immunizing with antigen comprised of six amino acid residues present at the carboxy terminus of the wild-type soluble APPbeta sequence (NH2-ISEVKM-COOH) or seven amino acid residues present at the carboxy terminus of the Swedish mutation at the beta cleavage site (NH2-EISEVNL˜COOH) conjugated to keyhole limpet hemacyanin by methods known to those skilled in the art.) A secondary anti˜species Horseradish Peroxidase (HRP) conjugated antibody is then utilized. The readout, following assay development with TMB substrate and quenching with 0.09M sulfuric acid, is absorbance at 450 nm.

T1 sequence (P56817 46-457 limits assumed): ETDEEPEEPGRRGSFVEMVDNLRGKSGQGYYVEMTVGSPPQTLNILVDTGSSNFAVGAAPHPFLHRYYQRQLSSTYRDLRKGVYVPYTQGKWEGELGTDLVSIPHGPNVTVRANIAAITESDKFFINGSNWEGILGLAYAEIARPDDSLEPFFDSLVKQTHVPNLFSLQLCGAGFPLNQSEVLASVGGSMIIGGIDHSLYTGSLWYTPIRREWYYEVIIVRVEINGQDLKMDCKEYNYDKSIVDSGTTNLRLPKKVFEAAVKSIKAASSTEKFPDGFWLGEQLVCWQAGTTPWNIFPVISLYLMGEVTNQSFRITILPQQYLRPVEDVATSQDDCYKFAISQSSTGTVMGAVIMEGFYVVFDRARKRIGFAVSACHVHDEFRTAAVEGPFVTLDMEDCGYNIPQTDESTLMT

Structure (SMILES) | IC50 [µM]
COc1ccc(F)c(CN2CCC3(CCC(=O)N3c3cccc(F)c3)CC2C)c1 (racemic) [Example 43, Racemic (5R,7S),(5S,7R)-8-(2-fluoro-5-methoxybenzyl)-1-(3-fluorophenyl)-7-methyl-1,8-diazaspiro[4.5]decan-2-one] | 100 to 300
CC1CC2(CCC(=O)N2c2cccc(F)c2)CCN1Cc1ccc(O)c(Cl)c1 (racemic) [Example 44, Racemic (5R,7S),(5S,7R)-8-(3-chloro-4-hydroxybenzyl)-1-(3-fluorophenyl)-7-methyl-1,8-diazaspiro[4.5]decan-2-one] | 10 to 100
CC(C)Oc1cccc(CN2CC[C@]3(CCC(=O)N3c3cccc(F)c3)C[C@@H]2C)c1 (racemic) [Example 45, Racemic (5R,7S),(5S,7R)-1-(3-fluorophenyl)-8-(3-isopropoxybenzyl)-7-methyl-1,8-diazaspiro[4.5]decan-2-one] | 10 to 100
CCCOc1cccc(CN2CCC3(CCC(=O)N3c3cccc(F)c3)CC2C)c1 (racemic) [Example 46, Racemic (5R,7S),(5S,7R)-1-(3-fluorophenyl)-7-methyl-8-(3-propoxybenzyl)-1,8-diazaspiro[4.5]decan-2-one] | 10 to 100
CCCCOc1cccc(CN2CCC3(CCC(=O)N3c3cccc(F)c3)CC2C)c1 (racemic) [Example 47, Racemic (5R,7S),(5S,7R)-8-(3-butoxybenzyl)-1-(3-fluorophenyl)-7-methyl-1,8-diazaspiro[4.5]decan-2-one] | 100 to 300
CC(C)COc1cccc(CN2CCC3(CCC(=O)N3c3cccc(F)c3)CC2C)c1 (racemic) [Example 48, Racemic (5R,7S),(5S,7R)-1-(3-fluorophenyl)-8-(3-isobutoxybenzyl)-7-methyl-1,8-diazaspiro[4.5]decan-2-one] | 100 to 300
CC1CC2(CCC(=O)N2c2cccc(F)c2)CCN1Cc1cccc(-c2cccnc2)c1 (racemic) [Example 49, Racemic (5R,7S),(5S,7R)-1-(3-fluorophenyl)-7-methyl-8-(3-pyridin-3-ylbenzyl)-1,8-diazaspiro[4.5]decan-2-one] | 100 to 300
CC1CC2(CCC(=O)N2c2cccc(F)c2)CCN1Cc1cccc(OC2CCCC2)c1 (racemic) [Example 50, Racemic (5R,7S),(5S,7R)-8-[3-(cyclopentyloxy)benzyl]-1-(3-fluorophenyl)-7-methyl-1,8-diazaspiro[4.5]decan-2-one] | 100 to 300
Cc1ccncc1-c1cccc(CN2CCC3(CCC(=O)N3c3cccc(F)c3)CC2C)c1 (racemic) [Example 51, Racemic (5R,7S),(5S,7R)-1-(3-fluorophenyl)-7-methyl-8-[3-(4-methylpyridin-3-yl)benzyl]-1,8-diazaspiro[4.5]decan-2-one] | 10 to 100
CC1CC2(CCC(=O)N2c2cccc(F)c2)CCN1Cc1cccc(Oc2ccccc2)c1 (racemic) [Example 52, Racemic (5R,7S),(5S,7R)-1-(3-fluorophenyl)-7-methyl-8-(3-phenoxybenzyl)-1,8-diazaspiro[4.5]decan-2-one] | 10 to 100
CC1CC2(CCC(=O)N2c2cccc(F)c2)CCN1Cc1cc(Br)ccc1F (racemic) [Example 53, Racemic (5R,7S),(5S,7R)-8-(5-bromo-2-fluorobenzyl)-1-(3-fluorophenyl)-7-methyl-1,8-diazaspiro[4.5]decan-2-one] | 100 to 300
CC1CC2(CCC(=O)N2c2cccc(F)c2)CCN1Cc1nc(-c2ccc(C#N)cc2)cs1 (racemic) [Example 54, Racemic 4-(2-{[(5R,7S),(5S,7R)-1-(3-fluorophenyl)-7-methyl-2-oxo-1,8-diazaspiro[4.5]dec-8-yl]methyl}-1,3-thiazol-4-yl)benzonitrile] | 100 to 300
CC1CC2(CCC(=O)N2c2cccc(F)c2)CCN1Cc1cccc(Oc2ccc(Cl)cc2)c1 (racemic) [Example 55, Racemic (5R,7S),(5S,7R)-8-[3-(4-chlorophenoxy)benzyl]-1-(3-fluorophenyl)-7-methyl-1,8-diazaspiro[4.5]decan-2-one] | 10 to 100
CC(=O)Nc1ccc(CN2CCC3(C=CC(=O)N3c3cccc(F)c3)CC2C)cc1 (racemic) [Example 59, Racemic N-(4-{[(5R,7S),(5S,7R)-1-(3-fluorophenyl)-7-methyl-2-oxo-1,8-diazaspiro[4.5]-3-en 8-yl]methyl}phenyl)acetamide] | 1 to 10
CC1CC2(C=CC(=O)N2c2cccc(F)c2)CCN1Cc1ccnn1CC(F)(F)F (racemic) [Example 60, Racemic (5R,7S),(5S,7R)-1-(3-fluorophenyl)-7-methyl-8-{[1-(2,2,2-trifluoroethyl)-1H-pyrazol-5-yl]methyl}-1,8-diazaspiro[4.5]dec-3-en-2-one] | 10 to 100
CC1CC2(C=CC(=O)N2c2cccc(F)c2)CCN1Cc1c[nH]c2ccc(C#N)cc12 (racemic) [Example 61, Racemic 3-{[(5R,7S),(5S,7R)-1-(3-fluorophenyl)-7-methyl-2-oxo-1,8-diazaspiro[4.5]dec-3-en-8-yl]methyl}-1H-indole-5-carbonitrile] | 10 to 100
CC1CC2(C=CC(=O)N2c2cccc(F)c2)CCN1Cc1c[nH]c2ccc(OCc3ccccc3)cc12 (racemic) [Example 62, Racemic (5R,7S),(5S,7R)-8-{[5-(benzyloxy)-1H-indol-3-yl]methyl}-1-(3-fluorophenyl)-7-methyl-1,8-diazaspiro[4.5]dec-3-en-2-one] | 10 to 100
CC1CC2(C=CC(=O)N2c2cccc(F)c2)CCN1Cc1c[nH]c2cc(F)ccc12 (racemic) [Example 63, Racemic (5R,7S),(5S,7R)-8-[(6-fluoro-1H-indol-3-yl)methyl]-1-(3-fluorophenyl)-7-methyl-1,8-diazaspiro[4.5]dec-3-en-2-one] | 10 to 100
CC1CC2(C=CC(=O)N2c2cccc(F)c2)CCN1Cc1cccc(-n2cccn2)c1 (racemic) [Example 64, Racemic (5R,7S),(5S,7R)-1-(3-fluorophenyl)-7-methyl-8-[3-(1H-pyrazol-1-yl)benzyl]-1,8-diazaspiro[4.5]dec-3-en-2-one] | 10 to 100
CC1CC2(C=CC(=O)N2c2cccc(F)c2)CCN1Cc1n[nH]c2ccc(Cl)cc12 (racemic) [Example 65, Racemic (5R,7S),(5S,7R)-8-[(5-chloro-1H-indazol-3-yl)methyl]-1-(3-fluorophenyl)-7-methyl-1,8-diazaspiro[4.5]dec-3-en-2-one] | 10 to 100
Cc1ccc2c(CN3CCC4(C=CC(=O)N4c4cccc(F)c4)CC3C)c[nH]c2c1 (racemic) [Example 66, Racemic (5R,7S),(5S,7R)-1-(3-fluorophenyl)-7-methyl-8-[(6-methyl-1H-indol-3-yl)methyl]-1,8-diazaspiro[4.5]dec-3-en-2-one] | 10 to 100
CC1CC2(C=CC(=O)N2c2cccc(F)c2)CCN1Cc1c[nH]c2cc(C(F)(F)F)ccc12 (racemic) [Example 67, Racemic (5R,7S),(5S,7R)-1-(3-fluorophenyl)-7-methyl-8-{[6-(trifluoromethyl)-1H-indol-3-yl]methyl}-1,8-diazaspiro [4.5]dec-3-en-2-one] | 10 to 100
CC1CC2(C=CC(=O)N2c2cccc(F)c2)CCN1Cc1cccc(OCc2nc(C3CC3)no2)c1 (racemic) [Example 68, Racemic (5R,7S),(5S,7R)-8-{3-[(3-cyclopropyl-1,2,4-oxadiazol-5-yl)methoxy]benzyl}-1-(3-fluorophenyl)-7-methyl-1,8-diazaspiro[4.5]dec-3-en-2-one] | 10 to 100
CC(=O)Nc1ccc(CN2CCC3(CCC(=O)N3c3cccc(F)c3)CC2C)cc1 (racemic) [Example 69, Racemic N-(4-{[(5R,7S),(5S,7R)-1-(3-fluorophenyl)-7-methyl-2-oxo-1,8-diazaspiro[4.5]dec-8-yl]methyl}phenyl)acetamide] | 10 to 100
CC1CC2(CCC(=O)N2c2cccc(F)c2)CCN1Cc1c[nH]c2ccc(Cl)cc12 (racemic) [Example 70, Racemic (5R,7S),(5S,7R)-8-[(5-chloro-1H-indol-3-yl)methyl]-1-(3-fluorophenyl)-7-methyl-1,8-diazaspiro[4.5]decan-2-one] | 10 to 100
CC1CC2(C=CC(=O)N2c2cccc(F)c2)CCN1Cc1nc(-c2cccc(Cl)c2)cs1 (racemic) [Example 71, Racemic (5R,7S),(5S,7R)-8-{[4-(3-chlorophenyl)-1,3-thiazol-2-yl]methyl}-1-(3-fluorophenyl)-7-methyl-1,8-diazaspiro[4.5]dec-3-en-2-one] | 10 to 100
COc1cccc(-c2csc(CN3CCC4(C=CC(=O)N4c4cccc(F)c4)CC3C)n2)c1 (racemic) [Example 72, Racemic (5R,7S),(5S,7R)-1-(3-fluorophenyl)-8-{[4-(3-methoxyphenyl)-1,3-thiazol-2-yl]methyl}-7-methyl-1,8-diazaspiro[4.5]dec-3-en-2-one] | 10 to 100
COc1ccc(-c2csc(CN3CCC4(C=CC(=O)N4c4cccc(F)c4)CC3C)n2)cc1 (racemic) [Example 73, Racemic (5R,7S),(5S,7R)-1-(3-fluorophenyl)-8-{[4-(4-methoxyphenyl)-1,3-thiazol-2-yl]methyl}-7-methyl-1,8-diazaspiro[4.5]dec-3-en-2-one] | 10 to 100
